The record followed here is publication PMC12566046, “Arylpiperazinyl-Benzocycloheptapyrrole-Carboxamides Endowed with Dual Anticancer and Antiviral Activities” (Molecules, 2025).

SMILES strings stand for the structures. Like-named read-outs stand apart in the source and are kept apart here. A value given as a limit tells only on which side of the number the result lay.

A short description of data set [1]: Cytotoxicity on uninfected Huh-7 cells (WST-8, crystal violet). The following applies: human, uninfected Huh-7 cells. (Tetrazolium dyes change colour on reduction, which living cells bring about.)
Procedure: (§2) The toxicity of the compounds at the same concentration was tested on the same cells in parallel.
(§3) Cytotoxic effects were evaluated on uninfected cells using the WST-8 assay (Orangu, Cell Guidance Systems, Cambridge, UK) and the crystal violet assay [23]. […] Huh-7, MDCK, and Vero TMPRSS cells were seeded at 1 × 10^4, 1.5 × 10^4, and 1.2 × 10^4 cells/well, respectively, and incubated for 48 h (Huh-7 and MDCK) or 24 h (VERO TMPRSS), following conditions matching those of the corresponding antiviral assays in terms of timing and culture medium. At the end of incubation, the medium was replaced with a 10% WST-8 solution in DMEM and incubated for 1 h at 37 °C. Optical density (OD) was then measured at 450 nm using a Varioskan LUX plate reader (ThermoFisher Scientific, Milano, Italy). Subsequently, cells were fixed with 4% buffered formalin solution (Merck®, Darmstadt, Germany), stained with 1% crystal violet (Merck®, Darmstadt, Germany), and the dye was solubilized in 30% acetic acid for 30 min under shaking. OD was then measured at 595 nm as an additional readout of cell viability. The percentage of viability at each concentration was calculated using the formula:% viability = 100 × (ODcompound/ODuntreated control) where ODcompound and ODuntreated are the OD of the cells treated with compound or DMSO, respectively.
(§4) The CC50 value was determined by nonlinear regression analysis on GraphPad Prism 7 (San Diego, CA, USA).
Data set [2] can be described thus: in vitro. The following applies: human.
Procedure: as §2, §3, §4
Data set [3] has as its system ZIKV, strain Brazil/2016/INMI1. Nature of the data set: ZIKV viral yield reduction assay on Huh-7 cells. It counts as cell-based, Zika virus. The following applies: for EC50: Zika virus. As to the method: We developed a protocol to screen the potential antiviral activity of compounds 1–20 against ZIKV (strain Brazil) on Huh-7 cells, against an H1N1 IAV strain (PR/8/1934) on MDCK cells, and against SARS-CoV-2 (strain Milano) on Vero-TMPRSS. Each compound was tested in duplicate at concentrations of 50 μM, 5 μM, and 0.5 μM. Treatment was applied immediately after infection, and at 24–48 h post-infection, supernatants were collected to assess viral yield, determined as PFU/mL for ZIKV and SARS-CoV-2 or as TCID50/mL for IAV. The test allowed us to evaluate both the antiviral action and the cytotoxicity of each compound, comparing them with reference compounds, such as sofosbuvir for ZIKV and EIDD-1931 for IAV and SARS-CoV-2 (Supplementary Materials, Figures S87–S89).
Viral yield reduction assays for ZIKV and SARS-CoV-2 were performed as previously described by Plicanti. Briefly, 1 × 10^4 Huh-7 cells/well and 1.2 × 10^4 VERO TMPRSS cells/well were infected with ZIKV (MOI 1) or SARS-CoV-2 (MOI 0.05) in a primary 96-well plate for 2 h at 37 °C, 5% CO2. […] Supernatants were collected after 48 h (Huh-7) or 24 h (VERO TMPRSS), diluted 3-fold, and added onto VERO E6 or VERO TMPRSS monolayers, respectively. After 2 h at 37 °C, the inoculum was replaced with 0.75% carboxymethyl cellulose (Merck®, Darmstadt, Germany) in DMEM 2% FBS. After 48–72 h, cells were then fixed with 4% buffered formalin solution (Merck®, Darmstadt, Germany) and stained with 1% crystal violet (Merck®, Darmstadt, Germany). Titres and percentage of inhibition were calculated as follows:
PFU/mL = number of plaques*3^n/vol infection, where n is the dilution where plaques were counted:% inhibition = 100 × (1 − Titre-compound/Titre-untreated control) where Titre-compound and Titre-untreated control are the titres (PFU/mL) obtained on cells treated with compound or DMSO, respectively.
SI was obtained by dividing CC50 by EC50 for each drug/virus/cell line. Compounds with SI values ≥ 10 were active in vitro.

A short description of data set [4]: in vitro. The settings on record: African green monkey.
The subject of the next data set is NCI-60 cell line panel. Nature of the data set: NCI-60 single-dose assay, whole panel. The settings on record: summary over the panel. It counts as cell-based, human. The source says:
(§1) We first evaluated the cytotoxic activity of tricyclic-pyrrole carboxamides 1–20 using the NCI-60 cell line panel, representing nine different human cancers: leukemia, melanoma, and cancers of the lung, colon, central nervous system (CNS), ovary, kidney, prostate, and breast (the one-dose graph for compounds 1–20 is reported in Supplementary Materials, Figures S43–S62). Compounds 1, 5, 10, 11, 17, and 20 satisfied pre-determined threshold inhibition criteria in a minimum number of cell lines; therefore, they were also tested in the full five-dose assay (Figures S63–S68 in the Supplementary Materials).

Data set [5] is described as follows: Cytotoxicity on uninfected MDCK cells (WST-8, crystal violet). The following applies: dog.
Data set [6] concerns IAV strain A/PR/8/34 (H1N1). Nature of the data set: microbe, parasite or virus in culture. The settings on record: Influenza A virus, MDCK.
Data set [7] deals with BT-549 (breast cancer cell line). Description: NCI-60 single-dose assay. It counts as cell-based, human. The settings on record: Homo sapiens, BT-549, read-out: growth inhibition (GI%) and cytotoxicity (negative values).
Source text: as §1

Data set [8] concerns MDA-MB-231/ATCC (breast cancer cell line). Description: NCI-60 single-dose assay. The class given is cell-based, human. The settings on record: Homo sapiens, MDA-MB-231, read-out: growth inhibition (GI%) and cytotoxicity (negative values).
Source text: as §1

In data set [9] the test system is MDA-MB-435 (melanoma cell line). Nature of the data set: NCI-60 single-dose assay. It counts as cell-based, human. The following applies: Homo sapiens, MDA-MB-435, read-out: growth inhibition (GI%) and cytotoxicity (negative values).
Source text: as §1

Data set [10] concerns UACC-62 (melanoma cell line). Nature of the data set: NCI-60 single-dose assay. The class given is cell-based, human. The following applies: Homo sapiens, UACC-62, read-out: growth inhibition (GI%) and cytotoxicity (negative values).
Source text: as §1

The test system of data set [11] is MALME-3M (melanoma cell line). Nature of the data set: NCI-60 single-dose assay. The class given is cell-based, human. The settings on record: Homo sapiens, Malme-3M, read-out: growth inhibition (GI%) and cytotoxicity (negative values).
Source text: as §1

Data set [12] concerns LOX IMVI (melanoma cell line). Description: NCI-60 single-dose assay. It counts as cell-based, human. The settings on record: Homo sapiens, LOX IMVI, read-out: growth inhibition (GI%) and cytotoxicity (negative values).
Source text: as §1

Data set [13] concerns EKVX (non-small cell lung cancer cell line). Description: NCI-60 single-dose assay. The class given is cell-based, human. The following applies: Homo sapiens, read-out: growth inhibition (GI%) and cytotoxicity (negative values).
Source text: as §1

Data set [14] deals with SK-MEL-5 (melanoma cell line). Nature of the data set: NCI-60 single-dose assay. The following applies: human. The class given is cell-based, human.
Source text: as §1

The subject of data set [15] is MCF-7 (breast cancer cell line). Description: NCI-60 single-dose assay. It counts as cell-based, human. The settings on record: Homo sapiens, MCF7, read-out: growth inhibition (GI%) and cytotoxicity (negative values), MCF-7, 10^−5 M.
Source text: as §1

Data set [16] relates to UACC-257 (melanoma cell line). Description: NCI-60 single-dose assay. The class given is cell-based, human. The following applies: Homo sapiens, UACC-257, read-out: growth inhibition (GI%) and cytotoxicity (negative values).
Source text: as §1

Data set [17] has as its system MDA-MB-468 (breast cancer cell line). Nature of the data set: NCI-60 single-dose assay. The settings on record: Homo sapiens, MDA-MB-468, read-out: growth inhibition (GI%) and cytotoxicity (negative values). It counts as cell-based, human.
Source text: as §1

In data set [18] the test system is SK-MEL-28 (melanoma cell line). Nature of the data set: NCI-60 single-dose assay. It counts as cell-based, human. The following applies: Homo sapiens, SK-MEL-28, read-out: growth inhibition (GI%) and cytotoxicity (negative values).
Source text: as §1

Data set [19] has as its system SK-MEL-2 (melanoma cell line). Nature of the data set: NCI-60 single-dose assay. The following applies: Homo sapiens, SK-MEL-2, read-out: growth inhibition (GI%) and cytotoxicity (negative values). It counts as cell-based, human.
Source text: as §1

Data set [20] has as its system T-47D (breast cancer cell line). Description: NCI-60 single-dose assay. The settings on record: Homo sapiens, T47D, read-out: growth inhibition (GI%) and cytotoxicity (negative values). The class given is cell-based, human.
Source text: as §1

In another data set the test system is M14 (melanoma cell line). Nature of the data set: NCI-60 single-dose assay. The class given is cell-based, human. The settings on record: Homo sapiens, M14, read-out: growth inhibition (GI%) and cytotoxicity (negative values).
Source text: as §1

The test system of data set [21] is IAV strain A/PR/8/34 (H1N1).
A short description of data set [22]: in vitro. The settings on record: dog.

For `CC(C)OC(=O)[C@H](C)N[P@](=O)(OC[C@H]1O[C@@H](n2ccc(=O)[nH]c2=O)[C@](C)(F)[C@@H]1O)Oc1ccccc1` [sofosbuvir, reference compound], in data set [1], the CC50 at 48 h worked out at 300 µM. The CC50 in “in vitro [2]” worked out at 262 µM. Moreover, the “selectivity index (SI)” value in [3] (ZIKV, Huh-7 cells, CC50/EC50) is on record as 178.32. In addition, the EC50 in data set [3] (ZIKV, Huh-7 cells, 48 h, full dose-response, read-out: EC50) came out at 1.47 µM; in data set [3] (preliminary screening (50, 5, 0.5 μM), Huh-7, read-out: ZIKV/Huh‐7 EC50) it was 2.07 µM.
A word on the inhibition: it is the relative decrease from the control value, in per cent. Molecule `O=C(NCCN1CCN(c2ccc(Cl)c(Cl)c2)CC1)c1c(Cl)[nH]c2c1CCCc1ccccc1-2` [Compound 19] came in with a CC50 at 24 h in the data set “in vitro [4]” of 40.8 µM. Moreover, the “growth inhibition (GI%) reached against cancer cell lines of the NCI-60 panel” value with NCI-60 cell line panel is given as > 90%. The CC50 at 48 h in data set [5] is 92.1 µM; in data set [1], 12 µM. The EC50 stood at 4.31 µM in [6] (48 h); 4.11 µM in data set [6] (read-out: IAV/MDCK EC50); 4.08 µM in data set [3] (Huh-7, read-out: ZIKV/Huh‐7 EC50). Moreover, the inhibition at 10 µM in data set [7], in [8], in data set [9], in data set [10], in data set [11] and in data set [12] was < 60% each time. Moreover, the inhibition at 10 µM in data set [13] was 61.7%; in data set [15], < 60%; in [16], < 60%; in [17], 94.2%; in data set [18] it was < 60%; in data set [19] it was < 60%. Further, the inhibition at 10 µM (in data set [20]; in the data set with M14 (melanoma cell line)) was < 60% each time. Also, the “growth inhibition (GI%) and cytotoxicity (negative values)” value in data set [14] is −24.28%. The “selectivity index (SI)” value in data set [21] (IAV, MDCK cells, CC50/EC50) is given as 21.36. Also, the “IAV/MDCK SI” value in data set [21] (preliminary screening) is given as < 12.17. Besides, the CC50 in the data set “in vitro [22]” was < 50 µM.
